Measurements as given in ChEMBL document CHEMBL1142149, “In vitro activities of the lipopeptides palmitoyl (Pal)-Lys-Lys-NH(2) and Pal-Lys-Lys alone and in combination with antimicrobial agents against multiresistant gram-positive cocci” (2007).
In brackets after ≈: the same amount, converted by molar mass. Activity calls are given as the source filed them. The calls are words filed in the database; no cut-off is given here.

Key:
[1] = tested on: Staphylococcus aureus; test: Antimicrobial activity against methicillin-resistant Staphylococcus aureus ATCC 43300; format: functional; conditions: for MIC50 / MIC90: Staphylococcus aureus, ATCC 43300
[2] = tested on: Enterococcus faecalis; test: Antimicrobial activity against vancomycin-susceptible Enterococcus faecalis ATCC 29212; format: functional; conditions: for MIC50 / MIC90: Enterococcus faecalis, ATCC 29212
[3] = tested on: Streptococcus pyogenes; test: Antimicrobial activity against Streptococcus pyogenes ATCC 19615; format: functional; conditions: for MIC50 / MIC90: Streptococcus pyogenes, ATCC 19615
[4] = tested on: Staphylococcus aureus; test: Antimicrobial activity against methicillin-susceptible Staphylococcus aureus ATCC 29213; format: functional; conditions: for MIC50 / MIC90: Staphylococcus aureus, ATCC 29213
[5] = tested on: Enterococcus faecalis; test: Antimicrobial activity against vancomycin-resistant Enterococcus faecalis ATCC 51299; format: functional; conditions: for MIC50 / MIC90: Enterococcus faecalis, ATCC 51299
[6] = tested on: Prescottella equi; test: Antimicrobial activity against Rhodococcus equi ATCC 6939; format: functional; conditions: for MIC50 / MIC90: Rhodococcus (subgen. Prescottella) equi, ATCC 6939
[7] = tested on: Erythrocyte; test: Effect on hemolytic activity in human RBC above 20 mg/liter; format: functional, cell-based
[8] = tested on: Erythrocyte; test: Effect on hemolytic activity in human RBC above 50 mg/liter; format: functional, cell-based

Row | SMILES | MIC50 [1] [µg/mL] | MIC90 [1] [µg/mL] | MBC50 [2] [µg/mL] | MBC90 [2] [µg/mL] | MIC50 [2] [µg/mL] | MIC90 [2] [µg/mL] | MBC50 [3] [µg/mL] | MBC90 [3] [µg/mL] | MIC50 [3] [µg/mL] | MIC90 [3] [µg/mL] | MBC50 [4] [µg/mL] | MBC90 [4] [µg/mL] | MIC50 [4] [µg/mL] | MIC90 [4] [µg/mL] | MIC50 [5] [µg/mL] | MIC90 [5] [µg/mL] | MBC50 [6] [µg/mL] | MBC90 [6] [µg/mL] | MIC50 [6] [µg/mL] | MIC90 [6] [µg/mL] | also measured
1 | CC1(C)S[C@@H]2[C@H](NC(=O)[C@H](N)c3ccc(O)cc3)C(=O)N2[C@H]1C(=O)O [AMOXICILLIN] | 32 (≈ 87.6 µM) | 128 (≈ 350 µM) | 16 (≈ 43.8 µM) | 64 (≈ 175 µM) | 4 (≈ 10.9 µM) | 16 (≈ 43.8 µM) | 4 (≈ 10.9 µM) | 8 (≈ 21.9 µM) | 0.25 (≈ 0.684 µM) | 2 (≈ 5.47 µM) | 8 (≈ 21.9 µM) | 16 (≈ 43.8 µM) | 1 (≈ 2.74 µM) | 4 (≈ 10.9 µM) | 16 (≈ 43.8 µM) | 64 (≈ 175 µM) | 8 (≈ 21.9 µM) | 32 (≈ 87.6 µM) | 1 (≈ 2.74 µM) | 2 (≈ 5.47 µM) | MBC50 [1]: 64 µg/mL (≈ 175 µM); MBC90 [1]: 256 µg/mL (≈ 701 µM); MBC50 [5]: 64 µg/mL (≈ 175 µM); MBC90 [5]: 128 µg/mL (≈ 350 µM)
2 | CCCCCCCCCCCCCCCC(=O)N[C@@H](CCCCN)C(=O)N[C@@H](CCCCN)C(N)=O | 4 (≈ 7.82 µM) | 8 (≈ 15.6 µM) | 4 (≈ 7.82 µM) | 8 (≈ 15.6 µM) | 2 (≈ 3.91 µM) | 4 (≈ 7.82 µM) | 2 (≈ 3.91 µM) | 4 (≈ 7.82 µM) | 1 (≈ 1.95 µM) | 2 (≈ 3.91 µM) | 8 (≈ 15.6 µM) | 16 (≈ 31.3 µM) | 4 (≈ 7.82 µM) | 8 (≈ 15.6 µM) | 2 (≈ 3.91 µM) | 4 (≈ 7.82 µM) | 8 (≈ 15.6 µM) | 32 (≈ 62.5 µM) | 4 (≈ 7.82 µM) | 16 (≈ 31.3 µM) | MBC90 [5]: 16 µg/mL (≈ 31.3 µM); Activity [7]: Active
3 | CN[C@H](CC(C)C)C(=O)N[C@H]1C(=O)N[C@@H](CC(N)=O)C(=O)N[C@H]2C(=O)N[C@H]3C(=O)N[C@H](C(=O)N[C@H](C(=O)O)c4cc(O)cc(O)c4-c4cc3ccc4O)[C@H](O)c3ccc(c(Cl)c3)Oc3cc2cc(c3O[C@@H]2O[C@H](CO)[C@@H](O)[C@H](O)[C@H]2O[C@H]2C[C@](C)(N)[C@H](O)[C@H](C)O2)Oc2ccc(cc2Cl)[C@H]1O [VANCOMYCIN] | 0.5 (≈ 0.345 µM) | 2 (≈ 1.38 µM) | 2 (≈ 1.38 µM) | 4 (≈ 2.76 µM) | 1 (≈ 0.69 µM) | 2 (≈ 1.38 µM) | 1 (≈ 0.69 µM) | 2 (≈ 1.38 µM) | 0.5 (≈ 0.345 µM) | 1 (≈ 0.69 µM) | 0.5 (≈ 0.345 µM) | 2 (≈ 1.38 µM) | 0.5 (≈ 0.345 µM) | 1 (≈ 0.69 µM) | 32 (≈ 22.1 µM) | 64 (≈ 44.2 µM) | 8 (≈ 5.52 µM) | 16 (≈ 11 µM) | 0.5 (≈ 0.345 µM) | 1 (≈ 0.69 µM) | MBC50 [1]: 0.5 µg/mL (≈ 0.345 µM); MBC90 [1]: 2 µg/mL (≈ 1.38 µM); MBC50 [5]: 64 µg/mL (≈ 44.2 µM); MBC90 [5]: 256 µg/mL (≈ 177 µM)
4 | C[C@@H](O)[C@H]1C(=O)N2C(C(=O)O)=C(SCCNC=N)C[C@H]12 [IMIPENEM ANHYDROUS] | 16 (≈ 53.4 µM) | 128 (≈ 428 µM) | 16 (≈ 53.4 µM) | 64 (≈ 214 µM) | 4 (≈ 13.4 µM) | 16 (≈ 53.4 µM) | 1 (≈ 3.34 µM) | 4 (≈ 13.4 µM) | 0.5 (≈ 1.67 µM) | 1 (≈ 3.34 µM) | 4 (≈ 13.4 µM) | 8 (≈ 26.7 µM) | 0.5 (≈ 1.67 µM) | 2 (≈ 6.68 µM) | 16 (≈ 53.4 µM) | 64 (≈ 214 µM) | 8 (≈ 26.7 µM) | 16 (≈ 53.4 µM) | 0.25 (≈ 0.835 µM) | 1 (≈ 3.34 µM) | MBC50 [1]: 64 µg/mL (≈ 214 µM); MBC90 [1]: 256 µg/mL (≈ 855 µM); MBC50 [5]: 64 µg/mL (≈ 214 µM); MBC90 [5]: 128 µg/mL (≈ 428 µM)
5 | CCCCCCCCCCCCCCCC(=O)N[C@@H](CCCCN)C(=O)N[C@@H](CCCCN)C(=O)O | 4 (≈ 7.8 µM) | 8 (≈ 15.6 µM) | 4 (≈ 7.8 µM) | 8 (≈ 15.6 µM) | 2 (≈ 3.9 µM) | 4 (≈ 7.8 µM) | 2 (≈ 3.9 µM) | 4 (≈ 7.8 µM) | 1 (≈ 1.95 µM) | 2 (≈ 3.9 µM) | 8 (≈ 15.6 µM) | 16 (≈ 31.2 µM) | 4 (≈ 7.8 µM) | 8 (≈ 15.6 µM) | 2 (≈ 3.9 µM) | 4 (≈ 7.8 µM) | 4 (≈ 7.8 µM) | 16 (≈ 31.2 µM) | 2 (≈ 3.9 µM) | 16 (≈ 31.2 µM) | MBC90 [5]: 16 µg/mL (≈ 31.2 µM); Activity [8]: Active
6 | C[C@H]1c2cccc(O)c2C(=O)C2=C(O)[C@]3(O)C(=O)C(C(N)=O)=C(O)[C@@H](N(C)C)[C@@H]3[C@@H](O)[C@@H]21.O [DOXYCYCLINE] | 4 | 16 | 16 | 64 | 4 | 32 | 8 | 16 | 2 | 8 | 8 | 32 | 2 | 8 | 16 | 64 | 32 | 128 | 1 | 2 | –
7 | CC[C@H]1OC(=O)[C@H](C)[C@@H](O[C@H]2C[C@@](C)(OC)[C@@H](O)[C@H](C)O2)[C@H](C)[C@@H](O[C@@H]2O[C@H](C)C[C@H](N(C)C)[C@H]2O)[C@](C)(O)C[C@@H](C)C(=O)[C@H](C)[C@@H](O)[C@]1(C)O [ERYTHROMYCIN] | 4 (≈ 5.45 µM) | 32 (≈ 43.6 µM) | 32 (≈ 43.6 µM) | – | 8 (≈ 10.9 µM) | 32 (≈ 43.6 µM) | 8 (≈ 10.9 µM) | 32 (≈ 43.6 µM) | 4 (≈ 5.45 µM) | 8 (≈ 10.9 µM) | 16 (≈ 21.8 µM) | 64 (≈ 87.2 µM) | 4 (≈ 5.45 µM) | 8 (≈ 10.9 µM) | 16 (≈ 21.8 µM) | 64 (≈ 87.2 µM) | 32 (≈ 43.6 µM) | 64 (≈ 87.2 µM) | 0.5 (≈ 0.681 µM) | 2 (≈ 2.73 µM) | MBC50 [1]: 32 µg/mL (≈ 43.6 µM)
8 | CC(=O)NC[C@H]1CN(c2ccc(N3CCOCC3)c(F)c2)C(=O)O1 [LINEZOLID] | 0.5 (≈ 1.48 µM) | 1 (≈ 2.96 µM) | 2 (≈ 5.93 µM) | 4 (≈ 11.9 µM) | 1 (≈ 2.96 µM) | 2 (≈ 5.93 µM) | 1 (≈ 2.96 µM) | 2 (≈ 5.93 µM) | 0.5 (≈ 1.48 µM) | 1 (≈ 2.96 µM) | 1 (≈ 2.96 µM) | 2 (≈ 5.93 µM) | 0.5 (≈ 1.48 µM) | 2 (≈ 5.93 µM) | 1 (≈ 2.96 µM) | 2 (≈ 5.93 µM) | 8 (≈ 23.7 µM) | 16 (≈ 47.4 µM) | 0.5 (≈ 1.48 µM) | 1 (≈ 2.96 µM) | MBC50 [1]: 0.5 µg/mL (≈ 1.48 µM); MBC50 [5]: 4 µg/mL (≈ 11.9 µM)
